Experimental data as given in patent US20060194259A1, “Method for isolating an allosteric effector of a receptor” (priority 2002, published 2006).
Values belong to the molecule of their own block, whether it stands above or below them.

Assays:
receptor EGFP-NK2R [1] = biological target: T1, receptor EGFP-NK2R (Homo sapiens, UniProt P21452); assay: Dissociation of NKA4-10 TR7 from EGFP-NK2R by fluorescence energy transfer; assay type: binding; conditions: 10° C.; without 805
T1 sequence (P21452 1-398): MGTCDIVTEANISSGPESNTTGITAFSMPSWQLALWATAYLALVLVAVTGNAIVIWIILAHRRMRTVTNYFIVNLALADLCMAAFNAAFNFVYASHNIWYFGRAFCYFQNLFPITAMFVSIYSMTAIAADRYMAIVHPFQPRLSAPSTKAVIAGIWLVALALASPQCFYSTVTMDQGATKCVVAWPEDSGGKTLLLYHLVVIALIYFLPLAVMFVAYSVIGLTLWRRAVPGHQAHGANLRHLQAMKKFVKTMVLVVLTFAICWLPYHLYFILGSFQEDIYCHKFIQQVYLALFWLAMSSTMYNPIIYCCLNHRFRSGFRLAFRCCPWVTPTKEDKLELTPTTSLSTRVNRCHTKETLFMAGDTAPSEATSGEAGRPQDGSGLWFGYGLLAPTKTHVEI
Protocol: (§1) The x-axis represents time in seconds and the y-axis represents fluorescence.
(§2) In the presence of 10 μM of 805, an acceleration of the dissociation is observed characterized by a modification of the amplitudes of the rapid (88%) and slow (12%) dissociation stages.

receptor EGFP-NK2R [2] = biological target: T1, receptor EGFP-NK2R; assay: Calcium response caused by NKA 4-10 TR7 in HEK 293 cells expressing EGFP-NK2R (indo-1); assay type: cell-based; conditions: read-out: 50%-effective dose of NKA 4-10 TR7 for the calcium response; without 805
Protocol: The cells are put into suspension at a rate of 500,000 cells/ml in Hepes buffer and arranged in a spectrofluorimeter cuvette. The excitation wavelength is fixed at 355 nm and the emission is recorded at […].

receptor EGFP-NK2R [3] = biological target: T2, receptor EGFP-NK2R (UniProt P16610); assay: Dissociation of NKA4-10 TR7 from EGFP-NK2R by fluorescence energy transfer; assay type: binding; design: % al (max): maximum value observed for the increase in amplitude of the rapid dissociation rate; ns = n; other: 20 nM of NK; % al (at 10 μM); other: compou; fused on or other part: EGFP fused to the receptor as FRET donor; conditions: 10° C.; without 805
T2 sequence (P16610 1-390): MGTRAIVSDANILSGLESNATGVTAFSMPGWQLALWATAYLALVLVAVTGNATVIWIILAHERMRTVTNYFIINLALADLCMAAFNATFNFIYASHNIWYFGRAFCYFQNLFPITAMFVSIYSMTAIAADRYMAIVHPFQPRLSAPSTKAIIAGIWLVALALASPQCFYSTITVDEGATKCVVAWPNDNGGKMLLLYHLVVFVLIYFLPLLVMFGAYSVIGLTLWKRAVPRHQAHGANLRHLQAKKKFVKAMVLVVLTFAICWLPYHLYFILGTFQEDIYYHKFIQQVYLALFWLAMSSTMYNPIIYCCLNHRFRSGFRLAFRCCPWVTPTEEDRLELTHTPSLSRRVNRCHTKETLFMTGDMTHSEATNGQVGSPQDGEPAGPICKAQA
Protocol: as §1, §2

receptor EGFP-NK2R [4] = biological target: T2, receptor EGFP-NK2R; assay: Dissociation kinetics of NKA-Bo bound to EGFP-NK2R by fluorescence energy transfer; assay type: binding; design: % al (max): maximum value observed for the increase in amplitude of the rapid dissociation rate; ns = n; other: 20 nM of NK; % al (at 10 μM); other: compou; fused on or other part: EGFP fused to the receptor as FRET donor
Protocol: Dissociation (FIG. 4B): HEK 293 cells expressing the receptor EGFP-NK2R are put into suspension at a concentration of 1,000,000 cells/ml in Hepes physiological buffer (in mM: 137.5 NaCl; 1.25 MgCl2; 1.25 CaCl2; 6 KCl; 5.6 glucose; 10 Hepes; 0.4 NaH2PO4; 1% BSA (w/v); pH 7.4) and arranged in a 1 ml cuvette equipped with a magnetic stirrer on the cuvette holder of a SPEX fluorolog 3 spectrofluorimeter.
(§3) The amplitude of each relaxation is then given by the adjustment of the experimental traces.

receptor EGFP-NK2R [5] = biological target: T2, receptor EGFP-NK2R; assay: Association kinetics of NKA-Bo with EGFP-NK2R by fluorescence energy transfer (rapid mixing); assay type: binding; design: % al (max): maximum value observed for the increase in amplitude of the rapid dissociation rate; ns = n; other: 20 nM of NK; % al (at 10 μM); other: compou; fused on or other part: EGFP fused to the receptor as FRET donor
Excerpt: Association (FIG. 4A): HEK 293 cells expressing the receptor EGFP-NK2R (NK2R marked with GFP) are put into suspension at a concentration of 2,000,000 cells/ml in Hepes physiological buffer (in mM: 137.5 NaCl; 1.25 MgCl2; 1.25 CaCl2; 6 KCl; 5.6 glucose; 10 Hepes; 0.4 NaH2PO4; 1% BSA (w/v); pH 7.4) and arranged in one of the reservoirs of the rapid mixing device. […] The observation chamber is arranged in a SPEX fluorolog 3 spectrofluorimeter. The temperature of the reservoir of the syringes as well as of the mixing and observation chamber is fixed at 21° C. The excitation wavelength of the observation chamber is fixed at 470 nm, and the fluorescence emission wavelength is fixed at 510 nm. The sampling frequency of the experimental points is fixed at 50 Hz (1 point every 20 msec). The content of the reservoirs is driven towards the mixing and observation chamber using a pneumatic device allowing a flow rate of 4 ml/sec and the evolution of the mixture is recorded continuously from the moment of stopping of the thrust of the pistons of the reservoirs. The reaction of association of NKA-Bo with the receptor EGFP-NK2R is detected in the form of a reduction in the intensity of fluorescence of the GFP carried by the receptor NK2R. The experimental trace is adjusted by a multiexponential curve of type y=λ1 exp (−k1app×T)+λ2 exp (−k2app×T)+“straight”, where λ1 and λ2 are the amplitudes of the rapid and slow relaxations, k1app and k2app are the apparent rate constants of rapid and slow association, T is time and “straight” is a mathematical correction of the signal drift. The values of λ1, λ2, k1app, k2app for a final concentration of NKA-BO of 100 nM are respectively 67%; 32%; 0.6 sec^−1 and 0.03 sec^−1. The correlation coefficient of the adjustment of the experimental curve is R=0.989.
The rapid binding of NKA-Bo, recorded at a concentration of 20 nM using the rapid mixing equipment, is broken down into a sum of two exponentials the rates (kapp) of which differ by a factor of 10. The rapid binding of NKA-Bo (kapp=0.095 sec^−1) represents 44% of the total binding signal, in the absence of A11 (50 μM), whereas it represents 52% of the total signal in the presence of A11. The slow binding is carried out in both cases with an apparent rate (kapp) equal to 0.0095 sec^−1, and an amplitude equal to […] in the absence of A11, and 48% in the presence of A11.

[6] = tested on: cells not expressing the EGFP-NK2R receptor; assay: Calcium response on cells not expressing the receptor; assay type: cell-based; design: key: ns: not significant; ?: uniterpretable; conditions: Table 1
receptor EGFP-NK2R [7] = biological target: T2, receptor EGFP-NK2R; assay: Reversion of the binding of NKA-Bo to EGFP-NK2R by fluorescence energy transfer; design: % al (max): maximum value observed for the increase in amplitude of the rapid dissociation rate; ns = n; other: 20 nM of NK; % al (at 10 μM); other: compou; fused on or other part: EGFP fused to the receptor as FRET donor; conditions: 20 nM NKA-Bo; increasing concentration of compound; 100% = NKA 10 μM
Excerpt: as §3

[8] = 20 nM NKA-Bo, 10 μM SR 48968, no effector
[9] = in the presence of 50 μM compound, dissociation by non-fluorescent NKA

Molecule: NKA4-10 TR7: truncated neurokinin NKA4-10 marked in position 7 by Texas Red
amplitude of the rapid dissociation of NKA4-10 TR7 (receptor EGFP-NK2R [1]): 58% | EC50 (receptor EGFP-NK2R [2]): ~0.02 µM | amplitude of the slow dissociation of NKA4-10 TR7 (receptor EGFP-NK2R [3]): 42%

Molecule: CSCC[C@H](NC(=O)[C@H](CC(C)C)NC(=O)CNC(=O)[C@@H](NC(=O)[C@H](Cc1ccccc1)NC(=O)[C@H](CO)NC(=O)[C@H](CC(=O)O)NC(=O)[C@@H](NC(=O)[C@H](CCCCN)NC(=O)[C@H](Cc1c[nH]cn1)NC(=O)CCc1ccc2n1[B-](F)(F)[N+]1=C(c3ccccc3)C=C(c3ccccc3)C1=C2)[C@@H](C)O)C(C)C)C(N)=O [NKA-Bo]
λ1, amplitude of rapid dissociation of NKA-Bo (receptor EGFP-NK2R [4]; [8]): 40% | λ2, amplitude of slow dissociation of NKA-Bo (receptor EGFP-NK2R [4]; [8]): 58% | k1app, apparent rate constant of rapid association (receptor EGFP-NK2R [5]; NKA-BO 100 nM final, 21° C.): 0.6 s⁻¹ | k2app, apparent rate constant of slow association (receptor EGFP-NK2R [5]; NKA-BO 100 nM final, 21° C.): 0.03 s⁻¹ | λ1, amplitude of the rapid association relaxation (receptor EGFP-NK2R [5]; NKA-BO 100 nM final, 21° C.): 67% | λ2, amplitude of the slow association relaxation (receptor EGFP-NK2R [5]; NKA-BO 100 nM final, 21° C.): 32% | kapp of the rapid binding of NKA-Bo (receptor EGFP-NK2R [5]; NKA-Bo 20 nM): 0.095 s⁻¹ | kapp of the slow binding of NKA-Bo (receptor EGFP-NK2R [5]; NKA-Bo 20 nM, with or without A11): 0.0095 s⁻¹

% al (max): maximum value observed for the increase in amplitude of the rapid dissociation rate (receptor EGFP-NK2R [4]; Table 1, ns = not significant): ≧90% | fraction of receptors in the low-affinity state (receptor EGFP-NK2R [4]; at 100 μM of effector, approximately 25% in the absence of effector): ~100% | effect on the dissociation kinetics of NKA-Bo (receptor EGFP-NK2R [4]; dissociation by non-fluorescent NKA in the presence of compound): accelerating the dissociation rate | amplitude of the rapid dissociation of NKA-Bo (% of total signal) (receptor EGFP-NK2R [4]; [9]): 78% | amplitude of the slow dissociation of NKA-Bo (% of total signal) (receptor EGFP-NK2R [4]; [9]): 22% | EC50 (receptor EGFP-NK2R [4]; read-out: EC50 (μM): concentration of compound causing a 50% increase (relative to the maximum value) in the percentage of the amplitude of the rapid dissociation rate, Table 1, dissociation of NKA-Bo from EGFP-NK2R, ns = not significant): 38 to 44 µM | fraction of the NKA-Bo bound to its site displaced by the compound (receptor EGFP-NK2R [7]): 29% | rapid binding of NKA-Bo, % of the total binding signal (receptor EGFP-NK2R [5]; 20 nM NKA-Bo, in the presence of A11 (50 μM), 44% in its absence): 52% | slow binding of NKA-Bo, amplitude (receptor EGFP-NK2R [5]; 20 nM NKA-Bo, in the presence of A11 (50 μM), 66% in its absence): 48%
Molecule: N#CCN(Cc1ccc(N)cc1)Cc1ccc2ccccc2c1 [A11, [(4-Amino-benzyl)-naphthalen-2-ylmethyl-amino]-acetonitrile]
Ca Rep.: ability to evoke a calcium response on cells not expressing the EGFP-NK2R receptor [6]: ns
